Results published in PMC7443318 (Journal of medicinal chemistry, 2020).
Entries after “also recorded” stand apart in the source; their conditions may differ.

Assays:
mA3AR = target: T1, mA3AR (Mus musculus, UniProt Q61618)
T1 sequence (Q61618 1-319): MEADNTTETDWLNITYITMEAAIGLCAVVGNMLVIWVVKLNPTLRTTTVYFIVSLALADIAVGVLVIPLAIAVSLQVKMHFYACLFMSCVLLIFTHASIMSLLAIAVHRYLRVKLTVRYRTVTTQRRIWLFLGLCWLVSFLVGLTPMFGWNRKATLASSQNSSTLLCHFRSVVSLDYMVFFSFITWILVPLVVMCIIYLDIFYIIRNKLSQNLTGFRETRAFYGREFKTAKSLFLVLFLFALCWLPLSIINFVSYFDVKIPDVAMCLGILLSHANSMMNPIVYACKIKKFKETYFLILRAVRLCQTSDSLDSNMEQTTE

hA3AR [1] = target: T2, hA3AR (Homo sapiens, UniProt P0DMS8)
T2 sequence (P0DMS8 1-318): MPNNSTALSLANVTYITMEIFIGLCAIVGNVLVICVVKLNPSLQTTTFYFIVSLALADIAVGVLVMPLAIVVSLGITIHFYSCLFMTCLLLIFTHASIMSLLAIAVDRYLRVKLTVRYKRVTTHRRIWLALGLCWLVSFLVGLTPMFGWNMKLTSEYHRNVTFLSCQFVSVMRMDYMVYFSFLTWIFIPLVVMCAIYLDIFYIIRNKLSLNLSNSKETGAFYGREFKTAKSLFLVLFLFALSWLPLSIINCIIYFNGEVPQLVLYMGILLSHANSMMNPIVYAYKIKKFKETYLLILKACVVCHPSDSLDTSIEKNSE

hA3AR [2] = target: T2, hA3AR; conditions: fixed concentration of 15 (10 μM), Figure 1C
[3] = tested on: 45 receptors, channels and transporters; experiment: Off-target screen in radioligand binding assays; conditions: Table S1
[4] = tested on: wild-type C57BL/6 (WT) or A3AR-KO mice; experiment: Mouse model of A3AR-induced hypothermia; assay type: in vivo
[5] = target: translocator protein, TSPO (Rattus norvegicus, UniProt P16257); experiment: Off-target radioligand binding, TSPO
translocator protein, TSPO, sequence (P16257 whole entry): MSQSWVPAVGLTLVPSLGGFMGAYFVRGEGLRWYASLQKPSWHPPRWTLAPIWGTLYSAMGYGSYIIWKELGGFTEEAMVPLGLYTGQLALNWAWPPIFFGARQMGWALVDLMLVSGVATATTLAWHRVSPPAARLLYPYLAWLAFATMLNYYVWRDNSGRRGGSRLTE

## Oc1ccc(CCNc2nc(C#Cc3ccccc3)nc3c2ncn3[C@H]2[C@H](O)[C@H](O)[C@@H]3C[C@@H]32)cc1 [Compound 10, (1R,2R,3S,4R,5S)-4-(6-((4-Hydroxyphenethyl)amino)-2-(phenylethynyl)-9H-purin-9-yl)bicyclo[3.1.0]hexane-2,3-diol]
mA3AR
  increase of mA3AR affinity compared to 8: 6 fold

## Oc1ccc(CCNc2nc(C#Cc3ccccc3)nc3c2ncn3[C@H]2[C@H](O)[C@H](O)[C@@H]3C[C@@H]32)cc1F [Compound 11, (1R,2R,3S,4R,5S)-4-(6-((3-Fluoro-4-hydroxyphenethyl)amino)-2-(phenylethynyl)-9H-purin-9-yl)bicyclo[3.1.0]hexane-2,3-diol]
hA3AR [1]
  increase of hA3AR affinity compared to 8: 2 fold

## COc1ccc(CCNc2nc(C#Cc3ccccc3)nc3c2ncn3[C@H]2[C@H](O)[C@H](O)[C@@H]3C[C@@H]32)cc1O [Compound 14, (1R,2R,3S,4R,5S)-4-(6-((3-Hydroxy-4-methoxyphenethyl)amino)-2-(phenylethynyl)-9H-purin-9-yl)bicyclo[3.1.0]hexane-2,3-diol]
mA3AR
  reduction of mA3AR affinity compared to 15: 7 fold

## COc1cc(CCNc2nc(C#Cc3ccccc3)nc3c2ncn3[C@H]2[C@H](O)[C@H](O)[C@@H]3C[C@@H]32)ccc1O [Compound 15, (1R,2R,3S,4R,5S)-4-(6-((4-Hydroxy-3-methoxyphenethyl)amino)-2-(phenylethynyl)-9H-purin-9-yl)bicyclo[3.1.0]hexane-2,3-diol]
mA3AR
  increase of mA3AR affinity compared to 8: ~ 27 fold
hA3AR [2]
  Antagonism of hA3AR activation by Cl-IB-MECA 38 in cAMP assay: greatly inhibited the activation of hA3AR by Cl-IB-MECA; also recorded: shifted the concentration-response curve of Cl-IB-MECA 38 rightward
hA3AR [1]
  increase of hA3AR affinity compared to 8: ~ 2 fold
[3]
  Interaction with other GPCRs: did not interact
[4]; 3 mg/kg or 10 mg/kg 15, 30 min prior to 39 (3 mg/kg)
  Effect of pretreatment on hypothermic effect of full agonist 39: did not significantly attenuate
[4]; 3 mg/kg, i.p., WT mice (Figure 2B)
  Effect on core body temperature (Tb): only weak hypothermia
[4]; 10 mg/kg, i.p., ADORA3−/− mice, versus WT (Figure 2A)
  Effect on core body temperature (Tb) in ADORA3−/− mice: greatly attenuated
[4]; 10 mg/kg, i.p., wild-type C57BL/6 mice (Figure 2A)
  Effect on core body temperature (Tb): lowered core body temperature
[4]; mouse
  Period over which in vivo agonism was maintained: > 2 h

## O[C@@H]1[C@H](O)[C@@H]2C[C@@H]2[C@H]1n1cnc2c(NCCc3cccc(Cl)c3)nc(C#Cc3ccc(Cl)s3)nc21 [Compound 26, (1R,2R,3S,4R,5S)-4-(6-((3-Chlorophenethyl)amino)-2-((5-chlorothiophen-2-yl)ethynyl)-9H-purin-9-yl)bicyclo[3.1.0]hexane-2,3-diol]
[5]
  Ki: ~350 nM

## COc1cc(CCNc2nc(C#Cc3ccc(Cl)s3)nc3c2ncn3[C@H]2[C@H](O)[C@H](O)[C@@H]3C[C@@H]32)ccc1O [Compound 29, (1R,2R,3S,4R,5S)-4-(2-((5-Chlorothiophen-2-yl)ethynyl)-6-((4-hydroxy-3-methoxyphenethyl)amino)-9H-purin-9-yl)bicyclo[3.1.0]hexane-2,3-diol]
mA3AR
  reduction of mA3AR affinity compared to 15: 4 fold

## O[C@@H]1[C@H](O)[C@@H]2C[C@@H]2[C@H]1n1cnc2c(N[C@H]3C[C@@H]3c3ccccc3)nc(C#Cc3ccc(Cl)s3)nc21 [Compound 31, (1R,2R,3S,4R,5S)-4-(2-((5-Chlorothiophen-2-yl)ethynyl)-6-(((1S,2R)-2-phenylcyclopropyl)amino)-9H-purin-9-yl)bicyclo[3.1.0]hexane-2,3-diol]
hA3AR [1]; compared to N6-2-phenylethyl analogue
  reduction of hA3AR affinity by cyclopropyl constraint of the N6-2-phenylethyl moiety: ~ 10 fold

## CNC(=O)[C@@]12C[C@@H]1[C@@H](n1cnc3c(NCc4cccc(Cl)c4)nc(C#Cc4ccc(F)c(F)c4)nc31)[C@H](O)[C@@H]2O [Compound 39, (1S,2R,3S,4R,5S)-4-(6-((3-chlorobenzyl)amino)-2-((3,4-difluorophenyl)-ethynyl)-9H-purin-9-yl)-2,3-dihydroxy-N-methylbicyclo[3.1.0]hexane-1-carboxamide, reference compound]
[4]; 3 mg/kg, mice
  Hypothermic effect: pronounced hypothermic effect
